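Interpolation was linear, between the two tested concentrations surrounding the appropriate level; five concentrations were tested over 48 hours in 96-well plates. Here, GI50 denotes the concentration required for 50% inhibition of growth. TGI is the concentration that stops growth completely.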 Where a SMILES comes first, the peptide text is derived from it. [ ]: non-standard residue; d: D form. The star is where a group is joined. ξ: configuration not given here. Propanoyl(3-(4-MeO-Ph)) = COc1ccc(CCC(=O)*)cc1; Thr(3ξ) = CC(O)[C@H](N)C(=O)O; dNMeL = CN[C@H](CC(C)C)C(=O)O; Boc = CC(C)(C)OC(=O)*; OBn = c1ccc(CO*)cc1; ξLac = CC(O)C(=O)O
Experiments:
Test in all cases: NCI-60 cell line screen, 48 h
ACHN renal = test system: ACHN renal
HCT-15 colon = test system: HCT-15 colon
HOP-62 NSCLC = test system: HOP-62 NSCLC
LOX IMVI melanoma = test system: LOX IMVI melanoma
MDA-N = test system: MDA-N
NCI-H226 lung = test system: NCI-H226 lung
NCI-H522 lung = test system: NCI-H522 lung
OVCAR-5 ovarian = test system: OVCAR-5 ovarian
PC-3 prostate = test system: PC-3 prostate
SF-295 CNS = test system: SF-295 CNS

| SMILES | TGI (ACHN renal) | TGI (HCT-15 colon) | TGI (HOP-62 NSCLC) | TGI (LOX IMVI melanoma) | TGI (MDA-N) | TGI (NCI-H226 lung) | TGI (NCI-H522 lung) | TGI (OVCAR-5 ovarian) | TGI (PC-3 prostate) | TGI (SF-295 CNS) | GI50 (HOP-62 NSCLC) |
| --- | --- | --- | --- | --- | --- | --- | --- | --- | --- | --- | --- |
| Nc1nc(N)c2nnn(C[C@H]3CC[C@@H](CO)C3)c2n1 | > 100 µM | > 100 µM | > 100 µM | > 100 µM | > 100 µM | > 100 µM | > 100 µM | > 100 µM | > 100 µM | > 100 µM |  |
| O=C(N/N=C\c1ccc([N+](=O)[O-])cc1)Nc1cccc2ccccc12 | > 100 µM | > 100 µM | 22.5 µM | > 62.2 µM | > 100 µM | 61 µM | > 100 µM | > 100 µM | > 71.4 µM | 22.6 µM |  |
| COc1ccc(CCc2ccc(O)c(C(=O)O)c2)cc1OC | > 100 µM | > 100 µM | > 100 µM | > 100 µM | > 100 µM | > 100 µM | > 100 µM | > 100 µM | > 100 µM | > 100 µM |  |
| O=c1[nH]c2ccc(CC(=S)N3CCN(c4ccccc4)CC3)cc2o1 | > 100 µM | > 100 µM | > 100 µM | > 100 µM | > 76.7 µM | > 100 µM | > 100 µM | > 100 µM | > 100 µM | > 100 µM |  |
| NCCCc1c(-c2ccccc2)nc(N)[nH]c1=O | > 100 µM | > 100 µM | > 100 µM | > 100 µM | > 100 µM | > 100 µM | > 100 µM | > 100 µM | > 100 µM | > 100 µM |  |
| C=Cc1cc2c(cc1O)CC[C@@H]1[C@@H]2CC[C@]2(C)[C@@H](O)CC[C@@H]12 | 21.1 µM | 28.8 µM | 19.8 µM | 25.1 µM | 7.76 µM | 30.7 µM | 20.6 µM | 41.3 µM | 36.5 µM | 10.5 µM | 5.04 µM |
| CCOCC(NC(=O)C(CC(C)C)NC(=O)OC(C)(C)C)C(N)=O (stereo not drawn) (Boc-Leu-Ser(Et)-NH2; configuration not given here) | > 100 µM | > 100 µM | > 100 µM | > 100 µM | > 100 µM | > 100 µM | > 100 µM | > 100 µM | > 100 µM | > 100 µM |  |
| O=c1c(-c2ccccc2Cl)coc2cc(F)ccc12 | > 100 µM | > 100 µM | 62.2 µM | 35.3 µM | 25 µM | > 100 µM | 36.5 µM | > 100 µM | > 100 µM | 48.6 µM |  |
| Cc1ccc2cccc3c2c1CC1(C3=O)S(=O)(=O)OCCOS1(=O)=O | > 100 µM | > 100 µM | > 100 µM | > 100 µM | > 100 µM | > 100 µM | > 100 µM | > 100 µM | > 100 µM | > 100 µM |  |
| COc1ccc(CCC(=O)OC(C)[C@H](NC(=O)[C@@H](CC(C)C)N(C)C(=O)[C@@H]2CCCN2C(=O)C(C)O)C(=O)OCc2ccccc2)cc1 (stereo partly specified) (H-[ξLac]P[dNMeL][Thr(3ξ)](Propanoyl(3-(4-MeO-Ph)))-OBn) | > 100 µM | > 100 µM | > 100 µM | 41.4 µM | > 100 µM | 98.3 µM | 50.4 µM | > 100 µM | > 100 µM | > 100 µM |  |
| CC(=O)O[C@H]1CC[C@@]2(C)C(=CC[C@@H]3[C@@H]2CC[C@]2(C)c4c(cc(C#N)c(=N)n4C(C)=O)C[C@@H]32)C1 | 47.8 µM | 29.4 µM | 49.4 µM | 30.8 µM | 52.9 µM | 72.8 µM | 35.9 µM | 74.7 µM | 54.6 µM | 29.6 µM |  |
| CC1=C(C(=O)Nc2ccccc2)C(c2ccc(C)o2)C(C#N)=C(SCc2ccccc2)N1 (stereo unspecified) | > 100 µM | > 100 µM | > 100 µM | > 100 µM | > 92.9 µM | > 100 µM | > 100 µM | > 100 µM | > 100 µM | > 100 µM |  |
| O=c1c(O)c(-c2cc(O)c(O)cc2O)oc2cc(O)c(C3OC(CO)C(O)C(O)C3O)c(O)c12 (stereo unspecified) | > 100 µM | > 100 µM | > 100 µM | > 100 µM | > 100 µM | > 100 µM | > 100 µM | > 100 µM | > 100 µM | > 100 µM |  |
| Clc1ccc2c(NCCNc3ccnc4cc(Cl)ccc34)ccnc2c1 | 32.7 µM | 31 µM | 30.1 µM | 34.1 µM | 31.6 µM | 62.5 µM | 35.2 µM | 33.3 µM | 34.5 µM | 26.2 µM |  |
| N=c1oc2ccc(Cl)cc2cc1C(=O)NCc1ccccc1 | > 100 µM | > 100 µM | > 100 µM | > 100 µM | > 100 µM | > 100 µM | > 100 µM | > 100 µM | > 100 µM | > 100 µM |  |
| O=C1OC(C2OC(=O)c3cc(O)c(O)c(O)c3-c3c(O)c(O)c4oc(=O)c5c(c(O)c(O)c6oc(=O)c3c4c65)-c3c(cc(O)c(O)c3O)C(=O)OCC2O)C2OC(=O)c3c(c(O)c(O)c(O)c3[C@H]2O)-c2c1cc(O)c(O)c2O (stereo partly specified) | 80.3 µM | 33.3 µM | > 100 µM | 35.5 µM | 53.8 µM | 44.2 µM | 44.5 µM | 47.3 µM | > 100 µM | 68.5 µM |  |
| Fc1cc(-c2ncc(Cl)cc2Cl)c2cccccc1-2 | > 100 µM | > 100 µM | > 100 µM | > 100 µM | > 100 µM | > 100 µM | > 100 µM | > 100 µM | > 100 µM | > 100 µM |  |

— PubChem BioAssay (NCI)
